Data reported in the supplement of paper PMC10307832.

Assays:
Assay in all cases: relative viability (nuclei count vs DMSO), 5 days (fraction); higher = more cells survive
PC-3 [JPC-3] = tested on: PC-3 [JPC-3]
Summary of the method: (§1)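 Values are medians from duplicate plates. Each reflects relative viability, defined as the nuclei count of treated wells over that of vehicle wells. Lung cancer cell lines in 1536-well plates were pin-tool dosed one day after seeding with one drug alone or with a fixed anchor-drug dose plus five library-drug doses (not always all listed) in √10 steps, then fixed, stained and imaged at 4× after 5 days.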

NCI-H3122 = tested on: NCI-H3122
Summary of the method: as §1

COR-L23 = tested on: COR-L23
Summary of the method: as §1

SK-LU-1 = tested on: SK-LU-1
Summary of the method: as §1

A-427 = tested on: A-427
Summary of the method: as §1

LK-2 = tested on: LK-2
Summary of the method: as §1

HOP-62 = tested on: HOP-62
Summary of the method: as §1

SK-MES-1 = tested on: SK-MES-1
Summary of the method: as §1

NCI-H1993 = tested on: NCI-H1993
Summary of the method: as §1

NCI-H1944 = tested on: NCI-H1944
Summary of the method: as §1

NCI-H2228 = tested on: NCI-H2228
Summary of the method: as §1

HARA = tested on: HARA
Summary of the method: as §1

SW 1573 = tested on: SW 1573
Summary of the method: as §1

LXF-289 = tested on: LXF-289
Summary of the method: as §1

NCI-H727 = tested on: NCI-H727
Summary of the method: as §1

NCI-H1792 = tested on: NCI-H1792
Summary of the method: as §1

ABC-1 = tested on: ABC-1
Summary of the method: as §1

NCI-H596 = tested on: NCI-H596
Summary of the method: as §1

NCI-H2170 = tested on: NCI-H2170
Summary of the method: as §1

EMC-BAC-2 = tested on: EMC-BAC-2
Summary of the method: as §1

NCI-H2009 = tested on: NCI-H2009
Summary of the method: as §1

In the case of `O=C(O)c1ccc(-c2c[nH]c3ncc(-c4ccccc4)cc23)cc1C1CCCC1` + C[C@@H](Oc1cc(-c2cnn(C3CCNCC3)c2)cnc1N)c1c(Cl)ccc(F)c1Cl [Crizotinib] (partner 1 µM), the relative viability (PC-3 [JPC-3]; first compound 0.04 µM) is reported as 0.963, the relative viability (PC-3 [JPC-3]; first compound 0.1265 µM) is reported as 1.03 and the relative viability (PC-3 [JPC-3]; first compound 0.4 µM) is reported as 0.968. For the same molecule, the relative viability (PC-3 [JPC-3]; first compound 1.265 µM) was 0.832, the relative viability (NCI-H3122; first compound 0.04 µM) was 0.261 and the relative viability (NCI-H3122; first compound 0.1265 µM) was 0.245. The relative viability (NCI-H3122; first compound 0.4 µM) was 0.272, the relative viability (NCI-H3122; first compound 1.265 µM) was 0.319 and the relative viability (COR-L23; first compound 0.04 µM) was 0.584. The relative viability (COR-L23; first compound 0.1265 µM) was 0.508, the relative viability (COR-L23; first compound 0.4 µM) was 0.681 and the relative viability (COR-L23; first compound 1.265 µM) was 0.476. The relative viability (SK-LU-1; first compound 0.04 µM) was 0.927, the relative viability (SK-LU-1; first compound 0.1265 µM) was 0.901 and the relative viability (SK-LU-1; first compound 0.4 µM) was 0.719. It also gave a relative viability (SK-LU-1; first compound 1.265 µM) of 0.682, a relative viability (A-427; first compound 0.04 µM) of 0.941 and a relative viability (A-427; first compound 0.1265 µM) of 0.845. It also gave a relative viability (A-427; first compound 0.4 µM) of 0.86, a relative viability (A-427; first compound 1.265 µM) of 0.852 and a relative viability (LK-2; first compound 0.04 µM) of 0.31. The relative viability (LK-2; first compound 0.1265 µM) was 0.202, the relative viability (LK-2; first compound 0.4 µM) was 0.291 and the relative viability (LK-2; first compound 1.265 µM) was 0.198. For the same molecule, the relative viability (HOP-62; first compound 0.04 µM) was 0.902, the relative viability (HOP-62; first compound 0.1265 µM) was 0.901 and the relative viability (HOP-62; first compound 0.4 µM) was 0.904. The relative viability (HOP-62; first compound 1.265 µM) was 0.497, the relative viability (SK-MES-1; first compound 0.04 µM) was 0.942 and the relative viability (SK-MES-1; first compound 0.1265 µM) was 1.01. For the same molecule, the relative viability (SK-MES-1; first compound 0.4 µM) was 0.953, the relative viability (SK-MES-1; first compound 1.265 µM) was 0.774 and the relative viability (NCI-H1993; first compound 0.04 µM) was 0.805. For the same molecule, the relative viability (NCI-H1993; first compound 0.4 µM) was 0.805, the relative viability (NCI-H1993; first compound 1.265 µM) was 0.812 and the relative viability (NCI-H1944; first compound 0.04 µM) was 1.03. For the same molecule, the relative viability (NCI-H1944; first compound 0.1265 µM) was 1.14, the relative viability (NCI-H1944; first compound 0.4 µM) was 1.08 and the relative viability (NCI-H1944; first compound 1.265 µM) was 1.01. For the same molecule, the relative viability (NCI-H2228; first compound 0.04 µM) was 0.62, the relative viability (NCI-H2228; first compound 0.1265 µM) was 0.556 and the relative viability (NCI-H2228; first compound 0.4 µM) was 0.469. For the same molecule, the relative viability (NCI-H2228; first compound 1.265 µM) was 0.292, the relative viability (HARA; first compound 0.04 µM) was 0.985 and the relative viability (HARA; first compound 0.1265 µM) was 1.04. It also gave a relative viability (HARA; first compound 0.4 µM) of 1.02, a relative viability (HARA; first compound 1.265 µM) of 0.763 and a relative viability (SW 1573; first compound 0.04 µM) of 0.769. The relative viability (SW 1573; first compound 0.1265 µM) was 0.892, the relative viability (SW 1573; first compound 0.4 µM) was 0.862 and the relative viability (SW 1573; first compound 1.265 µM) was 0.925. For the same molecule, the relative viability (LXF-289; first compound 0.04 µM) was 0.741, the relative viability (LXF-289; first compound 0.1265 µM) was 0.772 and the relative viability (LXF-289; first compound 0.4 µM) was 0.594. The relative viability (LXF-289; first compound 1.265 µM) was 0.285, the relative viability (NCI-H727; first compound 0.04 µM) was 0.971 and the relative viability (NCI-H727; first compound 0.1265 µM) was 0.894. It also gave a relative viability (NCI-H727; first compound 0.4 µM) of 0.738, a relative viability (NCI-H727; first compound 1.265 µM) of 0.805 and a relative viability (NCI-H1792; first compound 0.04 µM) of 0.959. For the same molecule, the relative viability (NCI-H1792; first compound 0.1265 µM) was 0.994, the relative viability (NCI-H1792; first compound 0.4 µM) was 1.03 and the relative viability (NCI-H1792; first compound 1.265 µM) was 0.891. The relative viability (ABC-1; first compound 0.04 µM) was 1.4, the relative viability (ABC-1; first compound 0.1265 µM) was 1.06 and the relative viability (ABC-1; first compound 0.4 µM) was 1.18. For the same molecule, the relative viability (ABC-1; first compound 1.265 µM) was 0.98, the relative viability (NCI-H596; first compound 0.04 µM) was 1 and the relative viability (NCI-H596; first compound 0.1265 µM) was 1.09. For the same molecule, the relative viability (NCI-H596; first compound 0.4 µM) was 0.909, the relative viability (NCI-H596; first compound 1.265 µM) was 1 and the relative viability (NCI-H2170; first compound 0.04 µM) was 1.12. The relative viability (NCI-H2170; first compound 0.1265 µM) was 1.24, the relative viability (NCI-H2170; first compound 0.4 µM) was 1.18 and the relative viability (NCI-H2170; first compound 1.265 µM) was 0.843. It also gave a relative viability (EMC-BAC-2; first compound 0.04 µM) of 0.76, a relative viability (EMC-BAC-2; first compound 0.1265 µM) of 0.806 and a relative viability (EMC-BAC-2; first compound 0.4 µM) of 0.671. The relative viability (EMC-BAC-2; first compound 1.265 µM) was 0.672, the relative viability (NCI-H2009; first compound 0.04 µM) was 0.994 and the relative viability (NCI-H2009; first compound 0.1265 µM) was 1.05. The relative viability (NCI-H2009; first compound 0.4 µM) was 0.931 and the relative viability (NCI-H2009; first compound 1.265 µM) was 0.666.
